Source: patent publication US7563621B2, “Absorbing organic reagents into diagnostic test devices by formation of amine salt complexes” (Siemens Healhcare Diagnostics Inc, priority 2003, dated 2009)
Several values for one entry are separate records, joined by “and”; a condition that tells them apart may be missing. Equal values may be shown once. Where a name gives a salt, the structure may show the parent alone.

What was measured:
[1] = Butanol/water partitioning of pyrogallol red dye salts (Example 3); type: physicochemical; details: 276 nm; for Absorbance of Dye Salt in Butanol: butanol layer; for Absorbance of Dye Salt in Water: water layer
Description: Extractions were then performed in Mixxor extractors.

Lambda Light Chain [2] = assay: Automated protein assay with pyrogallol red salts, 54 μM (Example 5); details: Lambda Light Chain 25 mg/dL, 10 minutes, averaged data
Description: (§1) The dilutor was programmed for reactions of 180 μL reagent+40 μL sample. […] The samples were phosphate buffered saline (blank), human serum albumin (HSA) 25 mg/dL, and other proteins (i.e., human IgG, […], and Lambda Light Chain) at 25 mg/dL. Absorbance rate data were collected on a Biotek, Powerwave X Microplate Absorbance reader using BioTek “KC Jr” software to determine the relative detection of the different proteins (i.e., HSA, human IgG, […], and Lambda Light Chain) using salts of pyrogallol red. Two sets of replicates of the different proteins were run. […] The protein response was determined by subtracting the phosphate buffered saline sample reaction result from the protein reaction result.

Tamm-Horsfall [3] = molecular target: T1, Tamm-Horsfall (Homo sapiens, UniProt P07911); assay: as above; details: 10 minutes; for 600 nm Absorbance Level, salt with Protein / 900 nm Absorbance Background Level, salt with Protein / Reaction Absorbance at 600 nm − Absorbance at 900 nm (net protein response, protein minus non-protein sample): Tamm-Horsfall 25 mg/dL; for 600 nm Absorbance Level, salt with Protein / 900 nm Absorbance Background Level, salt with Protein / 600 nm Absorbance Level, salt in Phosphate Buffered Saline (No Protein) / 900 nm Absorbance Background Level, salt in Phosphate Buffered Saline (No Protein): 37° C, replicates #1 and #2; for Reaction Absorbance at 600 nm − Absorbance at 900 nm (net protein response, protein minus non-protein sample): averaged data; for 600 nm Absorbance Level, salt in Phosphate Buffered Saline (No Protein) / 900 nm Absorbance Background Level, salt in Phosphate Buffered Saline (No Protein): Tamm-Horsfall
Description: as §1

human IgG [4] = assay: as above; details: IgG 25 mg/dL, 10 minutes, averaged data
Description: as §1

[5] = molecular target: T2, human serum albumin (HSA) (Homo sapiens, UniProt P02768); assay: as above; details: 10 minutes; for 600 nm Absorbance Level, salt with Protein / 900 nm Absorbance Background Level, salt with Protein / Reaction Absorbance at 600 nm − Absorbance at 900 nm (net protein response, protein minus non-protein sample): HSA 25 mg/dL; for 600 nm Absorbance Level, salt with Protein / 900 nm Absorbance Background Level, salt with Protein / 600 nm Absorbance Level, salt in Phosphate Buffered Saline (No Protein) / 900 nm Absorbance Background Level, salt in Phosphate Buffered Saline (No Protein): 37° C, replicates #1 and #2; for Reaction Absorbance at 600 nm − Absorbance at 900 nm (net protein response, protein minus non-protein sample): averaged data; for 600 nm Absorbance Level, salt in Phosphate Buffered Saline (No Protein) / 900 nm Absorbance Background Level, salt in Phosphate Buffered Saline (No Protein): HSA
Description: as §1

[6] = molecular target: T2, human serum albumin (HSA); assay: Automated protein assay with pyrogallol red salts, 74 μM (Example 6); details: HSA 25 mg/dL; 10 minutes, 37° C; 900 nm baseline subtracted; Series #1 and #2
Description: The dilutor was programmed for reactions of 180 μL reagent+40 μL sample. […] The samples were phosphate buffered saline (blank), human serum albumin (HSA) 25 mg/dL, and other proteins (i.e., human IgG, […], and Lambda Light Chain) at 25 mg/dL. Absorbance data were collected on a Biotek, Powerwave X Microplate Absorbance reader using BioTek “KC Jr” software to determine the relative detection of the different proteins (i.e., HSA, human IgG, […], and Lambda Light Chain) using salts of pyrogallol red. Two sets of replicates of the different proteins were run. […] The protein response was determined by subtracting the phosphate buffered saline sample reaction result from the protein reaction result.

Lambda Light Chain [7] = assay: as above; details: Series #1 and #2; for Percent Detection as Percentage of HSA Detection: Lambda Light Chain
Description: (§2) The dilutor was programmed for reactions of 180 μL reagent+40 μL sample. […] The samples were phosphate buffered saline (blank), human serum albumin (HSA) 25 mg/dL, and other proteins (i.e., human IgG, […], and Lambda Light Chain) at 25 mg/dL. Absorbance data were collected on a Biotek, Powerwave X Microplate Absorbance reader using BioTek “KC Jr” software to determine the relative detection of the different proteins (i.e., HSA, human IgG, […], and Lambda Light Chain) using salts of pyrogallol red. Two sets of replicates of the different proteins were run. […] The protein response was determined by subtracting the phosphate buffered saline sample reaction result from the protein reaction result. […] The results for protein equivalence of the non-albumin proteins were expressed as a percentage of the protein colorimetric response to HSA as shown in Table 11 below.

Tamm-Horsfall [8] = molecular target: T1, Tamm-Horsfall; assay: as above; details: Series #1 and #2
Description: as §2

human IgG [9] = assay: as above; details: Series #1 and #2
Description: as §2

T2 sequence (P02768 25-609): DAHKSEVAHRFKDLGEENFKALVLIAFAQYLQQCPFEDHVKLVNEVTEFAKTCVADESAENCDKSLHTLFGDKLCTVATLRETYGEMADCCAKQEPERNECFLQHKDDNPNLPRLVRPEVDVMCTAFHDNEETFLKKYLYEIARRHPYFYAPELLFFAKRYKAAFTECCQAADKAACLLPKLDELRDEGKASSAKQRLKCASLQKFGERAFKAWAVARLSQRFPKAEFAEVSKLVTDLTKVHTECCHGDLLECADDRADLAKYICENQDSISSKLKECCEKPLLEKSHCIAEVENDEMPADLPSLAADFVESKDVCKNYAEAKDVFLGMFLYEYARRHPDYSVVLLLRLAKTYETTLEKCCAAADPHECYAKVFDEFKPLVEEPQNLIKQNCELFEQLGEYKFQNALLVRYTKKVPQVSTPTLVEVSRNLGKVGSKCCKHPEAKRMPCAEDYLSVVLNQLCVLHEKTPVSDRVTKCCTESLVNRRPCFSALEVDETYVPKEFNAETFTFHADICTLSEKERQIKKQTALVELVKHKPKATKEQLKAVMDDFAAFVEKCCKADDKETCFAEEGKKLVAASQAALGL

## O=c1ccc2c(-c3ccccc3S(=O)(=O)O)c3ccc(O)c(O)c3oc-2c1O [Sodium Pyrogallol Red Salt, pyrogallol red, reference compound]
[1]; Sodium Hydroxide
  Ratio of Butanol Absorbance to Water Absorbance: 0.10
  Absorbance of Dye Salt in Butanol: 0.034
  Absorbance of Dye Salt in Water: 0.338
Lambda Light Chain [2]; listed as Sodium Salt
  Reaction Absorbance at 600 nm − Absorbance at 900 nm (net protein response, protein minus non-protein sample): 0.006
Tamm-Horsfall [3]
  600 nm Absorbance Level, salt with Protein: 0.203 and 0.204
  900 nm Absorbance Background Level, salt with Protein: 0.036
  600 nm Absorbance Level, salt in Phosphate Buffered Saline (No Protein): 0.196 and 0.198
  900 nm Absorbance Background Level, salt in Phosphate Buffered Saline (No Protein): 0.036 and 0.035
Tamm-Horsfall [3]; listed as Sodium Salt
  Reaction Absorbance at 600 nm − Absorbance at 900 nm (net protein response, protein minus non-protein sample): 0.007
Human IgG [4]; listed as Sodium Salt
  Reaction Absorbance at 600 nm − Absorbance at 900 nm (net protein response, protein minus non-protein sample): 0.008
[5]
  600 nm Absorbance Level, salt with Protein: 0.211
  900 nm Absorbance Background Level, salt with Protein: 0.035
  600 nm Absorbance Level, salt in Phosphate Buffered Saline (No Protein): 0.197 and 0.196
  900 nm Absorbance Background Level, salt in Phosphate Buffered Saline (No Protein): 0.035
[5]; listed as Sodium Salt
  Reaction Absorbance at 600 nm − Absorbance at 900 nm (net protein response, protein minus non-protein sample): 0.015
[6]
  average net absorbance at 600 nm after subtracting PBS sample reaction result: 0.0563 and 0.0536
Lambda Light Chain [7]; Lambda Light Chain 25 mg/dL, 10 minutes, 37° C, 900 nm baseline subtracted
  average net absorbance at 600 nm after subtracting PBS sample reaction result: 0.0041 and 0.0037
Lambda Light Chain [7]
  Percent Detection as Percentage of HSA Detection: 8% and 7%
Lambda Light Chain [7]; listed as sodium
  Percent Detection as Percentage of HSA Detection: 8%
Tamm-Horsfall [8]; Tamm-Horsfall 25 mg/dL, 10 minutes, 37° C, 900 nm baseline subtracted
  average net absorbance at 600 nm after subtracting PBS sample reaction result: 0.0141 and 0.0118
Tamm-Horsfall [8]; Tamm-Horsfall
  Percent Detection as Percentage of HSA Detection: 26% and 21%
Human IgG [9]; IgG 25 mg/dL, 10 minutes, 37° C, 900 nm baseline subtracted
  average net absorbance at 600 nm after subtracting PBS sample reaction result: 0.0311 and 0.0318
Human IgG [9]; IgG
  Percent Detection as Percentage of HSA Detection: 58% and 56%

## O=c1ccc2c(-c3ccccc3S(=O)(=O)O)c3ccc(O)c(O)c3oc-2c1O [Trioctylamine Pyrogallol Red Salt, pyrogallol red]
[1]; Trioctylamine
  Ratio of Butanol Absorbance to Water Absorbance: 3.17
  Absorbance of Dye Salt in Butanol: 0.155
  Absorbance of Dye Salt in Water: 0.049
Lambda Light Chain [2]; listed as Trioctylamine Salt
  Reaction Absorbance at 600 nm − Absorbance at 900 nm (net protein response, protein minus non-protein sample): −0.042
Tamm-Horsfall [3]
  600 nm Absorbance Level, salt with Protein: 0.454 and 0.45
  900 nm Absorbance Background Level, salt with Protein: 0.085 and 0.084
  600 nm Absorbance Level, salt in Phosphate Buffered Saline (No Protein): 0.485 and 0.486
  900 nm Absorbance Background Level, salt in Phosphate Buffered Saline (No Protein): 0.081 and 0.082
Tamm-Horsfall [3]; listed as Trioctylamine Salt
  Reaction Absorbance at 600 nm − Absorbance at 900 nm (net protein response, protein minus non-protein sample): −0.034
Human IgG [4]; listed as Trioctylamine Salt
  Reaction Absorbance at 600 nm − Absorbance at 900 nm (net protein response, protein minus non-protein sample): −0.011
[5]
  600 nm Absorbance Level, salt with Protein: 0.454 and 0.464
  900 nm Absorbance Background Level, salt with Protein: 0.087 and 0.088
  600 nm Absorbance Level, salt in Phosphate Buffered Saline (No Protein): 0.476 and 0.483
  900 nm Absorbance Background Level, salt in Phosphate Buffered Saline (No Protein): 0.082 and 0.081
[5]; listed as Trioctylamine Salt
  Reaction Absorbance at 600 nm − Absorbance at 900 nm (net protein response, protein minus non-protein sample): −0.021
